# Measured values: patent US20210345614A1, “APPLICATION OF 7-CARBOXYBENZO[1,2,3]THIADIAZOLE AMIDES AS PLANT STIMULANTS” (ADAM MICKIEWICZ UNIVERSITY FOUNDATION, priority 2015, published 2021)
# Legend:
# [1] = tested on: potato virus Y (PVY); experiment: Field experiment on potato, PVY infection of tubers by DAS ELISA; format: in vivo, potato variety Altesse; conditions: for % of tubes infected by PVY Virus: field
# [2] = tested on: Brome Mosaic Virus BMV; experiment: Protection of barley against Brome Mosaic Virus infection by watering; format: in vivo
# Description: […] Control barley plants were treated with water only. One week after the second application of BTHWA, in each plant, one young developed leaf was sprinkled with carborundum to obtain small scratches, which helped in the virus infection.
# [3] = tested on: tobacco mosaic virus (TMV); experiment: TMV-tobacco cv. xanthi model, protection against biotic stress (necrotic spots); format: in vivo, Nicotiana tabacum cv. xanthi; conditions: for Resistance induction [%] (Reduction of necrotic spots related to control): evaluated after another 4 days
# Description: Tobacco plants (Nicotiana tabacum) cv. xanthi at the stage of three developed leaves was watered (i.e. applied to the roots) twice with BTHWA solution of 10 mg/L, in one-week intervals. Control tobacco plants were irrigated with water only. […] To assess the biological effectiveness in protecting plants against biotic stress, the TMV-tobacco cv. xanthi model was used. This pathogen-plant model includes determining the hypersensitivity interaction phenomena with formation of necrotic spots which are quantifiable.
# Tobacco plants (Nicotiana tabacum) cv. xanthi at the stage of three developed leaves were sprayed once with BION™ or BTHWA solutions at a concentration of 20 mg/L. A week later, the plants were mechanically infected with TMV virus by repeatedly rubbing the leaves with carborundum steeped in a suspension of the purified virus at the concentration of approx. 2 μg/ml. The level of protection against biotic stress was assessed by comparing the number of necrotic spots caused by TMV on the leaves of plants treated by BTHWA or BION™ and compared to the control (plant sprayed with water only).
# Reduction of the amount of necrotic spots indicates protection against influence of the biotic factor on the plant.
# The procedure as described in Example 4 was followed, however, the treated and control plants were divided into three batches and their leaves were inoculated with a virus, respectively after 1, 2, and 3 weeks past the last treatment with BTHWA or water only.
# After six days, plants treated with a solution of the working fluid at a BTHWA concentration <100 mg/L were inoculated with tobacco mosaic virus (TMV) in order to determine the degree of induction of resistance caused by the formulation. After another 4 days of infection by TMV, the level of infection was evaluated by determining the number and size of necrotic spot caused by viral disease oi the plant leaves relative to the control.
# Research on the durability of the induced resistance effect on the model of tobacco plants against TMV virus was performed. […] The group of plants were then infected with the virus after 1, 3, 6, 10, 15, 20, 25 and 30 days (Table 3).
# [4] = tested on: Tomato plants; experiment: Protection against abiotic stress in tomato caused by herbicide (glyphosate); format: in vivo; conditions: watered twice 20 mg/L; glyphosate 0.005% aqueous solution; 10 days after herbicide application
# Description: (§1) Tomato plants in the phase of first pair of developed true leaves were watered twice with BTHWA at concentration of 20 mg/L, at a weekly intervals. Control tomato plants were treated with water only.
# [5] = tested on: tobacco mosaic virus (TMV); experiment: TMV-tobacco cv. xanthi model, protection against biotic stress (necrotic spots); format: in vivo, Nicotiana tabacum cv. xanthi; conditions: sprayed twice at weekly intervals with 10 mg/L
# [6] = tested on: Powdery mildew; experiment: Protection of tomato against fungal infection of Powdery mildew; format: in vivo, Tomato Lycopersicon esculentum Mill
# Description: Tomato plants in the phase of first pair of developed true leaves were watered twice with BTHWA at a concentration of 20 mg/L, at a weekly interval. Control tomato plants were treater with water only. One week after the second treatment with BTHWA, Powdery mildew fungi suspension was introduced to the leaf using an insulin syringe (without a needle). The suspension was prepared from a culture in solid medium solid. Protection against biotic stress was evaluated based on comparing the area of the leaves infected by the fungi. […] The procedure as described in Example 18 was followed, however, the plants were sprayed.
# [7] = tested on: Tobacco plants (Nicotiana tabacum) var. xanthi; experiment: Protection against abiotic stress in tobacco caused by herbicide (glyphosate); format: in vivo; conditions: watered twice 20 mg/l; glyphosate 0.005% aqueous solution; 10 days after herbicide application
# Description: Tobacco plants (Nicotiana tabacum) var. […] stage of 3 developed leaves were watered twice with solution of BTHWA at concentration of 20 mg/l, at a weekly interval. Control […] plants were treated with water only.
# [8] = tested on: Pseudomonas syringe pv. tomato; experiment: Protection of tobacco against bacterial infection of Pseudomonas syringe pv. tomato; format: in vivo, Nicotiana tabacum cv. xanthi
# Description: Tobacco plants at the 3 developed leaves stage were watered (applied at the roots) twice in weekly intervals with BTHWA solution at a concentration of 20 mg/L. Control tobacco plants were irrigated with water only. One week after the second treatment, a Pseudomonas syringe pv. tomato bacterial suspension, at a concentration of 10^5 CFU/cm^3 was transferred to the leaf by using an insulin syringe (without a needle). The bacterial suspension was prepared from two-day syringe pv. tomato culture on a solid medium. Protection against biotic stress was evaluated based on the amount of bacterial growth in the leaves at the point of introduction followed by the formation of necrotic spots, and this was compared with the control. […] The procedure as described in Example 12 was followed, however, the effectiveness of BTHWA in protecting plants against biotic stress was tested against the bacterial cell concentration raised to approx. 10^6 […].
# [9] = tested on: Tomato plants; experiment: Protection against abiotic stress in tomato caused by lack of water; format: in vivo; conditions: watered twice 20 mg/L; 10 days after cessation of watering
# Description: as §1, with “only. A week after the second treatment, plants were exposed to a stress factor in the form of lack of access to water.” for “only.”
# [10] = tested on: Nicotiana tabacum var. xanthi; experiment: Phytotoxicity of BTHWA spray on tobacco under greenhouse conditions; conditions: 5 to 1000 mg/L tested
# Description: Experiments were carried out on a model tobacco plant (Nicotiana tabacum var. xanthi) under greenhouse conditions, where the plant was in the three-developed leaves phase. The plants were sprayed (with full coverage of the leaves surface) with a solution of a working fluid having a concentration of active substance (BTHWA) starting from 5 and ending at 1000 mg/L The phytotoxicity of the BTHWA was evaluated.
# [11] = watered once with 100 ml of 20 mg/L
smiles,measurement,setting,value
"CON(C)C(=O)c1cccc2nnsc12 [BTHWA, N-methyl-N-methoxy-7-carboxybenzo[1,2,3]thiadiazole amide]",reduction in the amount of PVY virus occurrence in the treated plants,"[1]; foliar application 20 mg/L of operational fluid, field conditions",~50%
same,% of tubes infected by PVY Virus,"[1]; foliar application 20 mg/L with mineral oil adjuvant, 7 days intervals",44.2%
same,% of tubes infected by PVY Virus,[1]; tuber dressing 20 mg/L + foliar application 20 mg/L,40.7%
same,biotic stress effects (disease symptoms) compared to control,"[2]; watered twice at weekly intervals with 70 ml of 20 mg/L, two weeks after BMV infection",showed no presence of biotic stress effects
same,prevention of biotic stress caused by BMV infection,[2]; watered with 10 mg/L,65%
same,Resistance induction [%] (Reduction of necrotic spots related to control),"[3]; spray 5 mg/L, TMV inoculation after six days",85%
same,Resistance induction [%] (Reduction of necrotic spots related to control),"[3]; spray 10 mg/L, TMV inoculation after six days",97%
same,Resistance induction [%] (Reduction of necrotic spots related to control),"[3]; spray 20 mg/L, TMV inoculation after six days",97%
same,Resistance induction [%] (Reduction of necrotic spots related to control),"[3]; spray 50 mg/L, TMV inoculation after six days",98%
same,lowest possible concentration at which the efficiency is maintained at greater than 90%,"[3]; spray, TMV inoculation after six days",10 mg/L
same,effectiveness in preventing biotic stress compared with BION,"[3]; sprayed once, 20 mg/L",more effective in preventing the occurrence of biotic stress
same,Average number of the local necrotic spots per leaf,"[3]; sprayed once, 20 mg/L, TMV infection a week later",0
same,Reduction of necrotic spots [%],"[3]; sprayed once, 20 mg/L, TMV infection a week later, vs control",100%
same,persistence of the resistance effect after a single application,[3]; [11],up to 25 days
same,time to activation of resistance after application,[3]; [11],after at least three days
same,% of induction (reduction of necrotic spots related to control),"[3]; watered once with 100 ml of 20 mg/L, virus inoculation 1 day after application",<10%
same,% of induction (reduction of necrotic spots related to control),"[3]; watered once with 100 ml of 20 mg/L, virus inoculation 3 days after application",10-20%
same,% of induction (reduction of necrotic spots related to control),"[3]; watered once with 100 ml of 20 mg/L, virus inoculation 6 days after application",94%
same,% of induction (reduction of necrotic spots related to control),"[3]; watered once with 100 ml of 20 mg/L, virus inoculation 10 days after application",96%
same,% of induction (reduction of necrotic spots related to control),"[3]; watered once with 100 ml of 20 mg/L, virus inoculation 15 days after application",95%
same,% of induction (reduction of necrotic spots related to control),"[3]; watered once with 100 ml of 20 mg/L, virus inoculation 20 days after application",95%
same,% of induction (reduction of necrotic spots related to control),"[3]; watered once with 100 ml of 20 mg/L, virus inoculation 25 days after application",91%
same,% of induction (reduction of necrotic spots related to control),"[3]; watered once with 100 ml of 20 mg/L, virus inoculation 30 days after application",85%
same,protection against biotic stress (number of necrotic spots vs control),"[3]; watered twice with 10 mg/L at one-week intervals, TMV infection a week after second treatment",restricts the influence of biotic factor
same,durability of protection against TMV biotic stress,"[3]; watering 10 mg/L twice, inoculation 1, 2 and 3 weeks after last treatment",effective after three weeks
same,lesser negative effect of the herbicide compared to the control,[4],30%
same,protection against biotic stress caused by TMV infection,[5],protected the treated leaves against biotic stress
same,protection against the effects of fungal infection,"[6]; 10 mg/L, watering and spraying",almost completely securing plants from the effects of fungal infection
same,protection against the effects of fungal infection,"[6]; sprayed twice, 20 mg/L",fully protecting plants against the effects of fungal infection
same,fungal infection and formation of infected leaf areas,"[6]; watered twice at a weekly interval, 20 mg/L",fungal infection and formation of infected areas were not observed
same,lesser negative effect of the herbicide compared to the control,[7],26%
same,protection against the effects of bacterial infection,"[8]; 10 mg/L, applied by watering or spraying",completely protecting the treated plants from the effects of bacterial infection
same,protection against the effects of bacterial infection,"[8]; sprayed twice at weekly intervals, 20 mg/L",fully protects the plants against the effects of bacterial infection
same,bacterial infection and formation of necrotic spots,"[8]; watered twice at weekly intervals, 20 mg/L, bacteria 10^5 CFU/cm^3",these effects were not observed
same,local necrotic spots at elevated bacterial cell concentration,"[8]; watering as in Example 12, bacteria approx. 10^6 CFU/cm",no local necrotic spots were observed
same,total mass of the untreated plants lower than the weight of the treated plants,[9],10%
same,"concentration in the working fluid at which phytotoxic effects were observed (yellowing of the leaves, necrosis of leaves, growth inhibition)",[10],above 100 mg/L
